Measured values reported in ChEMBL document CHEMBL5230089, “Small-Molecule Fms-like Tyrosine Kinase 3 Inhibitors: An Attractive and Efficient Method for the Treatment of Acute Myeloid Leukemia” (J Med Chem, 2020).

Experiments:
[1] = system: MV4-11; test: cells; conditions: Homo sapiens, MV4-11, 48 h
Description: Antiproliferative activity against human MV4-11 cells assessed as reduction in cell viability after 48 hrs by Alamar Blue assay

[2] = system: MOLM-14; test: cells; conditions: Homo sapiens, MOLM-14, 72 h
[3] = system: BaF3; test: cells; conditions: Mus musculus, BaF3, 72 h
[4] = system: BaF3; test: cells; conditions: Mus musculus, BaF3, 72 h; remark: listed apart in the source
[5] = target: T1, Receptor-type tyrosine-protein kinase FLT3 (Homo sapiens, UniProt P36888); test: Inhibition of FLT3 (unknown origin)
T1 sequence (P36888 whole entry): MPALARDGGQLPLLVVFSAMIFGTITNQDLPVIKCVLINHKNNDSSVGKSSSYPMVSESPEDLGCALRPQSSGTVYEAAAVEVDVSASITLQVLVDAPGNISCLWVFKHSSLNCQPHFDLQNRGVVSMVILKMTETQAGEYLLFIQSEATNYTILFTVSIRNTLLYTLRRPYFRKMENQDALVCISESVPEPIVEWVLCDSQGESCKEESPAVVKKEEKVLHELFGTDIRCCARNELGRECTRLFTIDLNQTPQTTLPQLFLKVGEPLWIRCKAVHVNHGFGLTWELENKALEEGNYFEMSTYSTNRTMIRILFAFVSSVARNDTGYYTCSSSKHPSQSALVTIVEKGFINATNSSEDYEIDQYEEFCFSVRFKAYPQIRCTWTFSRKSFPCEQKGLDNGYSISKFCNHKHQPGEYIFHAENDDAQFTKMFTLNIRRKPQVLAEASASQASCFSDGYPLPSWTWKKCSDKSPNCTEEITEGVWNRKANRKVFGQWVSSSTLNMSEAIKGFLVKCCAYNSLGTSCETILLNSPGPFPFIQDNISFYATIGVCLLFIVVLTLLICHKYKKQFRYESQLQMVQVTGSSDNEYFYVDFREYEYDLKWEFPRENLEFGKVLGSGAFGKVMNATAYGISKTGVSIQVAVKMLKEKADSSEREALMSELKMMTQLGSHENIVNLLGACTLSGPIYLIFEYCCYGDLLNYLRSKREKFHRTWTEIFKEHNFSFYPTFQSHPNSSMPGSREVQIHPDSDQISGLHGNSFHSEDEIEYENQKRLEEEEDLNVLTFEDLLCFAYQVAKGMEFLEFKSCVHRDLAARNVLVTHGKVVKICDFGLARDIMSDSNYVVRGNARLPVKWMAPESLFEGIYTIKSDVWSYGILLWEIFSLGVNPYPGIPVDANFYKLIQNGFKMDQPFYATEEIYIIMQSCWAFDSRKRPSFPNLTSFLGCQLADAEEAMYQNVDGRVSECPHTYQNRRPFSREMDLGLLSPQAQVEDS

[6] = system: RS4-11; test: Growth inhibition human RS4-11 cell assessed as reduction in cell viability at 50 uM measured after 72 hrs by CCK8 assay; type: functional
[7] = system: MV4-11; test: Growth inhibition of human MV4-11 cells assessed as reduction in cell viability at 50 uM measured after 72 hrs by CCK8 assay; type: functional
[8] = target: T2, Receptor-type tyrosine-protein kinase FLT3 (Homo sapiens, UniProt P36888, ITD)
[9] = target: T3, Aurora kinase A (Homo sapiens, UniProt O14965); test: Inhibition of Aurora-A (unknown origin)
T3 sequence (O14965 whole entry): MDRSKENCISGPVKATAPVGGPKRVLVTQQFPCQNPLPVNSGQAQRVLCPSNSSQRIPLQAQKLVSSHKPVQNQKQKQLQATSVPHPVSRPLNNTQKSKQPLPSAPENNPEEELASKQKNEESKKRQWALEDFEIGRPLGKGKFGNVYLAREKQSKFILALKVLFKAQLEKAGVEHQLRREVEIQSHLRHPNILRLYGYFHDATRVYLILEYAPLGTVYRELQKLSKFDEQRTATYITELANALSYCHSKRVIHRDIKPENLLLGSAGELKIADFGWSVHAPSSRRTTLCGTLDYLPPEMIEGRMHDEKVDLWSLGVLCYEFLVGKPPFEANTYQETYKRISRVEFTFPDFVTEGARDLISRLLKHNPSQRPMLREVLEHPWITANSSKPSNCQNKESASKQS

[10] = system: MOLM-13; test: cells; conditions: Homo sapiens, MOLM-13, 72 h
Description: Cytotoxicity against human MOLM-13 cells assessed as reduction in cell viability incubated for 72 hrs

[11] = target: Tyrosine-protein kinase JAK2 (Homo sapiens, UniProt O60674); test: Inhibition of JAK2 (unknown origin) in presence of ATP
[12] = system: MV4-11; test: Growth inhibition of human MV4-11 cells incubated for 72 hrs by CCK-8 assay; type: functional
[13] = system: MOLM-13; test: Growth inhibition of human MOLM-13 cells incubated for 72 hrs by CCK-8 assay; type: functional
[14] = system: MOLM-14; test: Growth inhibition of human MOLM-14 cells incubated for 72 hrs by CCK-8 assay; type: functional
[15] = system: HL-60; test: Growth inhibition of human HL-60 cells incubated for 4 days by WST assay; type: functional; conditions: HL-60, 96 h, time 4 day
[16] = target: Receptor-type tyrosine-protein kinase FLT3 (Homo sapiens, UniProt P36888); test: Binding affinity to human FLT3 assessed as dissociation constant
[17] = system: MV4-11; test: cells; conditions: Homo sapiens, MV4-11, 72 h
Description: Cytotoxicity against human MV4-11 cells assessed as cell viability incubated for 72 hrs by Cell titer-blue assay

[18] = system: MV4-11; test: Antiproliferative activity against human MV4-11 cells assessed as cell growth inhibition measured after 72 hrs by cell titer-Blue assay; type: functional, cell-based; conditions: MV4-11, 72 h
[19] = system: MOLM-14; test: Antiproliferative activity against human MOLM-14 cells assessed as cell growth inhibition measured after 72 hrs by cell titer-Blue assay; type: functional, cell-based; conditions: MOLM-14, 72 h
[20] = target: T2, Receptor-type tyrosine-protein kinase FLT3; test: Inhibition of FLT3-ITD mutant phosphorylation in human MOLM-14 cell incubated for 2 hrs; type: cell-based
[21] = target: T4, Receptor-type tyrosine-protein kinase FLT3 (Homo sapiens, UniProt P36888, D835Y); test: Inhibition of FLT3-D835Y mutant phosphorylation in human MOLM-14 cell incubated for 2 hrs; type: cell-based
[22] = system: MV4-11; test: Antiproliferative activity against human MV4-11 cells assessed as reduction in cell proliferation measured after 24 hrs by MTT assay; type: functional, cell-based; conditions: MV4-11, 24 h
[23] = target: T1, Receptor-type tyrosine-protein kinase FLT3; test: Inhibition of FLT3 (unknown origin) autophosphorylation expressed in human Leukemia cells; type: cell-based, Leukemia cell
[24] = system: MOLM-14; test: Cytotoxicity against human MOLM-14 cells assessed as reduction in cell viability incubated for 72 hrs; type: functional, cell-based; conditions: MOLM-14, 72 h
[25] = system: 697; test: Cytotoxicity activity against human 697 cells assessed as reduction cell viability at 50 uM incubated for 48 hrs by ATP-glo assay; type: functional, cell-based; conditions: Homo sapiens, 697, 48 h
[26] = system: BaF3; test: Antiproliferative activity against mouse BaF3 FLT3-D835 cells assessed as reduction in cell viability measured after 72 hrs by MTS assay; type: functional, cell-based; conditions: BaF3, 72 h
[27] = cells; conditions: Homo sapiens, TF cell, 72 h
[28] = system: Receptor-type tyrosine-protein kinase FLT3 (Homo sapiens), P36888 [UNDEFINED MUTATION]
[29] = system: BaF3; test: cells; conditions: Mus musculus, BaF3, 72 h; remark: listed apart in the source
[30] = system: MOLM-13; test: cells; conditions: Homo sapiens, MOLM-13, 72 h; remark: listed apart in the source
[31] = target: T4, Receptor-type tyrosine-protein kinase FLT3; test: Inhibition of FLT3-D835Y mutant (unknown origin)
[32] = target: T1, Receptor-type tyrosine-protein kinase FLT3; test: Inhibition of FLT3 (unknown origin) by ADP-Glo kinase assay
[33] = system: MOLM-13; test: Antiproliferative activity against human MOLM-13 cells assessed as reduction in cell viability measured after 48 hrs by MTT assay; type: functional, cell-based; conditions: MOLM-13, 48 h
[34] = target: T2, Receptor-type tyrosine-protein kinase FLT3; test: Inhibition of FLT3-ITD mutant (unknown origin) expressed in mouse BaF3 cells assessed as inhibition; type: cell-based
[35] = system: MV4-11; test: Cytotoxicity activity against human MV4-11 cells assessed as reduction in cell viability measured after 48 hrs; type: functional, cell-based; conditions: MV4-11, 48 h
[36] = system: MOLM-13; test: Cytotoxicity activity against human MOLM-13 cells assessed as reduction in cell viability measured after 48 hrs; type: functional, cell-based; conditions: MOLM-13, 48 h
[37] = Antiproliferative activity against human MOLM16 cells expressing FLT3-ITD mutant assessed as inhibition of cell proliferation measured after 72 hrs by celltiter-glo luminescent cell viability assay; type: functional, cell-based, MOLM-16; conditions: MOLM16, 72 h
[38] = target: T3, Aurora kinase A; test: Inhibition of Aurora-A (unknown origin) by kinase-glo luminescent assay
[39] = system: MOLM-13; test: Cytotoxicity against human MOLM-13 cells assessed as cell viability incubated for 72 hrs by Cell titer-blue assay; type: functional, cell-based; conditions: MOLM-13, 72 h
[40] = system: BaF3; test: cells; conditions: Mus musculus, BaF3, 72 h; remark: listed apart in the source

Sequence of Tyrosine-protein kinase JAK2 (O60674 whole entry): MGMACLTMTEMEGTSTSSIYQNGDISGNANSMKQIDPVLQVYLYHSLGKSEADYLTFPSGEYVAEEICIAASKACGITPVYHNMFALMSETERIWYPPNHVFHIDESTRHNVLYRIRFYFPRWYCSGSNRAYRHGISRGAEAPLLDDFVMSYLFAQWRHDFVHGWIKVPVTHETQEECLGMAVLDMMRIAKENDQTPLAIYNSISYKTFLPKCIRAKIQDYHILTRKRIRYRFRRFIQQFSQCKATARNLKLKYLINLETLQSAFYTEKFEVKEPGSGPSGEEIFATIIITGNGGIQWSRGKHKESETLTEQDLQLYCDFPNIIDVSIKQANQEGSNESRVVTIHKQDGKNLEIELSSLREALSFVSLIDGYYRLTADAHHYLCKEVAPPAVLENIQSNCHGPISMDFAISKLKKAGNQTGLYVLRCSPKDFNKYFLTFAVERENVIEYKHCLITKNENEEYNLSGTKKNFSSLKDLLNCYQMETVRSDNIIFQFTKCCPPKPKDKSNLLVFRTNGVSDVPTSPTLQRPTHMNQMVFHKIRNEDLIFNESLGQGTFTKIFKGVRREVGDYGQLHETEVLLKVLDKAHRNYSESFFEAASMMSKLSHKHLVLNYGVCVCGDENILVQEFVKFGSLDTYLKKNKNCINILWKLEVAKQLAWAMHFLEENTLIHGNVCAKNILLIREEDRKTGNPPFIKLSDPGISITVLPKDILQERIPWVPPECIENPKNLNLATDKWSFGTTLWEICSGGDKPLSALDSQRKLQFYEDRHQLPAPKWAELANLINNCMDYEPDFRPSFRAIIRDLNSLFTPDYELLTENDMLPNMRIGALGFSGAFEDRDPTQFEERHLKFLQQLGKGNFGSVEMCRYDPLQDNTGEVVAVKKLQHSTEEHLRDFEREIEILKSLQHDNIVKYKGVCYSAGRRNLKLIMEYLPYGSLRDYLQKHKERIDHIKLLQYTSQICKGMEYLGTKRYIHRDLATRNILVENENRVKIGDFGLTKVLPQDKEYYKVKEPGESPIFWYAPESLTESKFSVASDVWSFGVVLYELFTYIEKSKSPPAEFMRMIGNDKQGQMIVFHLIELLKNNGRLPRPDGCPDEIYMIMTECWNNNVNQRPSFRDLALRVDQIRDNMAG

CN1CCC(Nc2nc(Nc3ccc(Oc4ccccc4)cc3)c3c(=O)[nH]cc(Br)c3n2)CC1 [DENFIVONTINIB]
IC50 [1]: 3.5 nM
IC50 [2]: 7.5 nM
IC50 [3]: 21.4 nM
IC50 [4]: 38.1 nM

O=C(c1ccncc1)N1CCc2nc(-c3cc4cc(F)ccc4[nH]c3=O)[nH]c2C1
IC50 [5]: 2.7 nM
GI50 [6]: 6.3 µM
GI50 [7]: 110 nM

CC(C)(C)c1cc(NC(=O)Nc2ncc(CCNc3ncnc4[nH]c(-c5ccccc5)cc34)s2)no1
IC50 [8]: 67 nM
IC50 [9]: 15 nM
IC50 [1]: 7 nM
IC50 [10]: 7 nM

Cn1c2ccccc2c2c3c(c4c5ccccc5n(CCC#N)c4c21)CNC3=O [GO-6976]
IC50 [11]: 67.2 nM

CN(C)CC(=O)N1CCC[C@@H](n2nc(-c3ccc(Oc4ccccc4)cc3)c3c(N)ncnc32)C1
GI50 [12]: 22 nM
GI50 [13]: 21 nM
GI50 [14]: 42 nM

CNCCOc1ccc(-c2sc3nc(-c4cccs4)nc(NN4C(=O)C=C(C)C4=O)c3c2C)cc1
GI50 [12]: 540 nM
GI50 [15]: 250 nM

CC(C)Nc1ccnc(Nc2cccc(-c3cccnc3)c2)n1
Kd [16]: 3.6 nM
EC50 [17]: 25 nM

Cc1ncc(C(=O)Nc2ccc(CN3CCN(C)CC3)c(C(F)(F)F)c2)cc1C#Cc1c(N)ncc2ccc(F)cc12
IC50 [18]: 0.5 nM
IC50 [19]: 0.5 nM
IC50 [20]: 0.5 nM
IC50 [21]: 16.6 nM

CNC(=O)[C@@]1(N)C[C@H]2O[C@]1(C)n1c3ccccc3c3c4c(c5c6ccccc6n2c5c31)C(=O)NC4
IC50 [22]: < 0.25 nM
IC50 [23]: 0.1 nM

CCCCNc1ncc2c(-c3ccc(CN4CCN(C)CC4)cc3)cn([C@H]3CC[C@H](O)CC3)c2n1
IC50 [24]: 14 nM
IC50 [25]: 2.7 nM

Cc1[nH]c(/C=C2\C(=O)Nc3ccc(F)cc32)c(C)c1NC(=O)[C@@H]1CCCN1
IC50 [8]: 5.3 nM
IC50 [1]: 24.8 nM
IC50 [10]: 23.6 nM

CCc1nc(C(N)=O)c(Nc2ccc(N3CCC(N4CCN(C)CC4)CC3)c(OC)c2)nc1NC1CCOCC1 [GILTERITINIB]
IC50 [26]: 0.7 nM
IC50 [2]: 1.8 nM
IC50 [27]: 1.4 nM

Cc1cc2ncc(-c3ccccc3)nc2cc1C [AG1295]
IC5 [28]: 32 nM
IC50 [1]: 2200 nM

COc1cc2c(N3CCN(C(=O)Nc4ccc(OC(C)C)cc4)CC3)ncnc2cc1OCCCN1CCCCC1 [TANDUTINIB]
IC50 [29]: 10 nM
IC50 [30]: 10 nM
IC50 [2]: 10 nM

CCCNc1nc(Nc2ccc(C#N)cc2)ncc1C#CCCCNC(=O)[C@H](C)N(C)C(=O)/C=C/CN(C)C [FF-10101]
GI50 [12]: 0.83 nM
GI50 [13]: 1.1 nM
GI50 [14]: 1.5 nM

CC1=CC(=O)N(Nc2nc(-c3cccs3)nc3sc(C)c(C)c23)C1=O
IC50 [8]: 16 nM
GI50 [12]: 216 nM
GI50 [15]: > 10000 nM
IC50 [31]: 21 nM

Cc1ccc(C(=O)Nc2ccc(CN3CCN(C)CC3)c(C(F)(F)F)c2)cc1C#Cc1c(N)ncc2ccc(Cl)cc12
IC50 [8]: 6.5 nM
IC50 [1]: 0.49 nM
IC50 [2]: 0.72 nM

COc1cc2c(Oc3ccc(NC(=O)Nc4cccc(C)c4)cc3F)ccnc2cc1OCCCN1CCOCC1
IC50 [32]: 9 nM
IC50 [33]: 0.24 nM
IC50 [34]: 1.1 nM

O=C(c1ccc(CN2CCCCC2)cc1)N1CCc2nc(-c3cc4cc(F)ccc4[nH]c3=O)[nH]c2C1
IC50 [5]: 0.57 nM
GI50 [6]: 4.86 µM
GI50 [7]: 260 nM

CC(=O)OC[C@H]1O[C@@H](N2N=C(C(F)(F)F)/C(=N\Nc3cccc(C(F)(F)F)c3)C2=O)[C@H](OC(C)=O)[C@@H](OC(C)=O)[C@@H]1OC(C)=O
IC50 [35]: 4.7 µM
IC50 [36]: 4.04 µM

C[C@]12O[C@H](C[C@H](O)[C@H]1O)n1c3ccccc3c3c4c(c5c6ccccc6n2c5c31)C(=O)NC4=O
IC50 [22]: 12.3 nM
IC50 [37]: 27 nM
IC50 [30]: 13 nM

COc1ccc(C(=O)NC(=O)Nc2ccc3c(c2)NC(=O)/C3=C\c2[nH]c(C)c(C(=O)NCCN3CCCC3)c2C)c(F)c1
IC50 [8]: 0.5 nM
IC50 [38]: 0.4 nM

Cc1cc2ncc(-c3ccc(NC(=O)Nc4cc(C(C)(C)C)on4)cc3)nc2cc1C
IC50 [8]: 71 nM

CC1(COc2ccc3c(c2)ncn3-c2ccc3cccc(N4CCC(N)CC4)c3n2)COC1 [CRENOLANIB]
IC50 [24]: 2 nM
IC50 [39]: 2.9 nM
IC50 [40]: 1.3 nM
IC50 [1]: 1.3 nM
IC50 [30]: 2 nM
IC50 [2]: 2 nM
IC50 [10]: 4.9 nM
IC50 [17]: 0.92 nM

CC(C)(C)c1cc(NC(=O)Nc2ccc(-n3nc(-c4ccc(OCCN5CCOCC5)cc4)c4c(N)ncnc43)cc2)no1
GI50 [12]: < 0.3 nM
